The text below walks through data of patent US6476254B1, “Alkoxylated fatty alcohol dicarboxylic acid esters” (Croda Inc., priority 1998, dated 2002).

Bounds are passed on as bounds.

Data set [1] can be described thus: Skin spread factor (product spread on forearm circle, 15 minutes, FD&C Blue No. 1 staining). The format is in vivo. The following applies: resulting area divided by initial area after fifteen minute spread; FIG. 1A. How it is done: The skin spread factor is determined by applying, for example, 5 microliters of a product to a 3.14 cm diameter circle on the volar surface of the forearm. The product is spread evenly within the circle and allowed to spread for a fifteen minute period. The test site and surrounding area of the forearm is then sprayed with a 1 percent solution of FD&C Blue No. 1. The area not stained by the blue dye indicates the area onto which the product spread. The skin spread factor is obtained by dividing the resulting area by the initial area. In accordance with the present invention, formulations have a skin spread factor of less than about 8, preferably less than about 5.

Data set [2] is described as follows: Pigment wetting: viscosity of ester/pigment slurry. The format is physicochemical. The note with it: for viscosity (pigment wetting): FIG. 1B, dye slurry, 65% ester, 35% pigment, after standing five minutes. How it is done: Pigment wetting properties are determined by preparing a dye slurry and measuring viscosity. For example, a slurry can be prepared using an alkoxylated fatty alcohol dicarboxylic acid ester of the present invention mixed with 35 percent mica or any dye. The viscosity of the slurry is determined after allowing the slurry to stand for five minutes. The lower the viscosity, the better the pigment wetting properties of the ester. Desirably, in accordance with the present invention, viscosity of the resulting dye slurry will be below about 20,000 cps, preferably between about 500 and 15,000 cps and most preferably between about 500 and 5,000 cps based on a 65% ester, 35% pigment mixture (measured in weight percent). Viscosity will vary if a different testing mixture is used.

Consider Pentaerythrityl Tetraisostearate [PTIS], for which, in data set [1], the skin spread factor result was “very low”. For the same compound, in data set [2], the “viscosity (pigment wetting)” value is given as ~20,000 cps.
Regarding `CCCCCCCCCCCCCOC(=O)C(C)(C)C` [TDNP, Tridecyl Neopentanoate], the skin spread factor result in data set [1] is on record as “very high”. For the same compound, the “viscosity (pigment wetting)” value in data set [2] is recorded as “under 1000 cps”.
With `CCCCCCCC/C=C\CCCCCCCCCCCC(=O)OCCCCCCCCCCCCCCCCCCCCCCCC` [LGE, Lignoceryl Erucate], the skin spread factor result in data set [1] is “relatively low”. In addition, the “viscosity (pigment wetting)” value in data set [2] is recorded as > 15,000 cps.
In the same order, the values of Di-PPG-3 Myristyl Ether Adipate [DP3A] are “about 3.8” and “about 1200 cps”.
Compound Bis (PPG2, PEG10 Myristyl) adipate had a skin spread factor in data set [1] of 2.9. Further, the viscosity in data set [2] (test mixture not stated at this place) was 18,000 cps.
